# Measured values reported in patent US20150099883A1, “ARYLOXYUREA COMPOUND AND PEST CONTROL AGENT” (NIPPON SODA CO., LTD., priority 2012, published 2015).
# Tests used:
# [1] = system: adult female Tetranychus kanzawai from Okayama Prefecture; test: Efficacy test against Tetranychus kanzawai (spray on kidney bean plant); assay type: in vivo; details: 500 ppm emulsion sprayed
# Protocol: Ten adult female Tetranychus kanzawai acarus from Okayama Prefecture were inoculated onto the first leaves of a kidney bean plant planted in a No. 3 pot 7 to 10 days after germination. Next, an emulsion was prepared having the formula indicated in the aforementioned Preparation example 2. This emulsion was diluted with water to a compound concentration of 500 ppm or 125 ppm after which the diluted liquids were sprayed onto the kidney bean plant. The kidney bean plant was then placed in a temperature-controlled room at a temperature of 25° C. and humidity of 65%. The life and death of the adult insects were investigated 3 days after the spraying. In addition, the development from eggs laid to adult was investigated 14 days after the spraying.
# The aforementioned test was carried out on the emulsion containing the Compound No. 2-1 at 500 ppm. As a result, the insect mortality rates after 3 days and 14 days for the compound were 90% or higher.
melting point,SMILES,insect mortality rate after 3 days ([1]; 3 days after spraying),insect mortality rate after 14 days ([1]; 14 days after spraying)
164 to 166 °C,CC(C)(NC(=O)NOc1ccc2ncsc2c1)c1ccccn1,,
,CCN(Oc1ccc2ncsc2c1)C(=O)N=S(C)(=O)c1ccccc1 (stereo not drawn) [Compound No. 2-1],≥ 90%,≥ 90%
